Measurements from PubChem BioAssay AID192 (DTP/NCI, 2004).
Where “and” joins values, the source holds several entries; their conditions need not be identical. Equal values may be shown once. Inconclusive results and toxic doses are left out.

System: BDF1 mice, B16 melanoma ip, median survival T/C
Test: NCI In Vivo Anticancer Drug Screen. Data for tumor model B16 Melanoma (intraperitoneal) in B6D2F1 (BDF1) mice
Conditions: endpoint: median survival time, higher = longer survival
Method in brief: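 In this screen, activity was judged from survival or tumor size in treated versus vehicle-treated tumor-bearing mice, reported as T/C.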

[1] = dose: 1.56 mg/kg/injection, schedule: Q01DX009 (ip), vehicle: Klucel (hydroxypropylcellulose) (HPC)
[2] = dose: 3.12 mg/kg/injection, schedule: Q01DX009 (ip), vehicle: Klucel (hydroxypropylcellulose) (HPC)
[3] = dose: 6.25 mg/kg/injection, schedule: Q01DX009 (ip), vehicle: Klucel (hydroxypropylcellulose) (HPC)
[4] = dose: 50.0 mg/kg/injection, schedule: Q04DX003 (ip), vehicle: Klucel (hydroxypropylcellulose) (HPC)
[5] = dose: 100.0 mg/kg/injection, schedule: Q04DX003 (ip), vehicle: Klucel (hydroxypropylcellulose) (HPC)
[6] = dose: 200.0 mg/kg/injection, schedule: Q01DX009 (ip), vehicle: Klucel (hydroxypropylcellulose) (HPC)
[7] = dose: 6.25 mg/kg/injection, schedule: Q01DX009 (ip), vehicle: saline with Tween-80
[8] = dose: 6.25 mg/kg/injection, schedule: Q04DX003 (ip), vehicle: saline with Tween-80
[9] = dose: 12.5 mg/kg/injection, schedule: Q01DX009 (ip), vehicle: saline with Tween-80
[10] = dose: 12.5 mg/kg/injection, schedule: Q04DX003 (ip), vehicle: saline with Tween-80
[11] = dose: 25.0 mg/kg/injection, schedule: Q01DX009 (ip), vehicle: saline with Tween-80
[12] = dose: 3.12 mg/kg/injection, schedule: Q01DX009 (ip), vehicle: saline
[13] = dose: 12.5 mg/kg/injection, schedule: Q01DX009 (ip), vehicle: saline
[14] = dose: 12.5 mg/kg/injection, schedule: Q01DX009 (ip), vehicle: Klucel (hydroxypropylcellulose) (HPC)
[15] = dose: 25.0 mg/kg/injection, schedule: Q01DX009 (ip), vehicle: Klucel (hydroxypropylcellulose) (HPC)
[16] = dose: 50.0 mg/kg/injection, schedule: Q01DX009 (ip), vehicle: Klucel (hydroxypropylcellulose) (HPC)
[17] = dose: 50.0 mg/kg/injection, schedule: Q01DX009 (ip), vehicle: saline with Tween-80
[18] = dose: 100.0 mg/kg/injection, schedule: Q01DX009 (ip), vehicle: Klucel (hydroxypropylcellulose) (HPC)
[19] = dose: 3.13 mg/kg/injection, schedule: Q01DX009 (ip), vehicle: saline with Tween-80

For `CC1OC2COC(C)OC2C(C(O)COC(c2ccccc2)(c2ccccc2)c2ccccc2)O1` (configuration not stated), the T/C [1] was 89 % of control, the T/C [2] was 89 % of control and the T/C [3] was 88 % of control. The T/C [4] was 92 % of control, the T/C [5] was 97 % of control and the T/C [6] was 109 % of control.
With `NC(=S)N/N=C/c1cccc(CC(O)(C(F)(F)F)C(F)(F)F)n1` the T/C [7] was 95 % of control, the T/C [8] was 116 % of control and the T/C [9] was 90 % of control. For the same compound, the T/C [10] was 116 % of control, the T/C [11] was 88 % of control and the T/C (dose: 25.0 mg/kg/injection, schedule: Q04DX003 (ip), vehicle: saline with Tween-80) was 100 % of control.
In the case of `CC1(CC(C)(C)C2CCCCC2)OCCO1`, the T/C (dose: 12.5 mg/kg/injection, schedule: Q01DX009 (ip), vehicle: other) is reported as 100 % of control, the T/C (dose: 25.0 mg/kg/injection, schedule: Q01DX009 (ip), vehicle: other) is reported as 93 % of control and the T/C (dose: 50.0 mg/kg/injection, schedule: Q01DX009 (ip), vehicle: other) is reported as 90 % of control.
In the case of `CN1CCN(CCC=C2c3ccccc3Sc3ccc(S(=O)(=O)N(C)C)cc32)CC1`, the T/C (dose: 0.78 mg/kg/injection, schedule: Q01DX009 (ip), vehicle: saline) is reported as 102 % of control, the T/C (dose: 1.56 mg/kg/injection, schedule: Q01DX009 (ip), vehicle: saline) is reported as 100 % of control and the T/C [12] is reported as 86 % of control. For the same compound, the T/C [13] was 89 % of control.
`CN1CCC(OC2c3ccccc3CCc3ccccc32)CC1` was tested, and the T/C [12] was 100 % of control, the T/C (dose: 6.25 mg/kg/injection, schedule: Q01DX009 (ip), vehicle: saline) was 104 % of control and the T/C [13] was 104 % of control. The T/C (dose: 25.0 mg/kg/injection, schedule: Q01DX009 (ip), vehicle: saline) was 97 % of control.
In the case of `CCCCNC(=O)C1C=C2c3cccc4[nH]cc(c34)CC2N(C)C1` (configuration not stated), the T/C [2] is reported as 93 % of control, the T/C [14] is reported as 91 % of control and the T/C [15] is reported as 93 % of control. The T/C [16] was 96 % of control.
`O=C(O)/C(Cl)=C(/Cl)C(Cl)=C(Cl)Cl` was tested, and the T/C [11] was 95 % of control.
In the case of `CN=C(N)N/N=C(\C)c1ccc2oc3ccc(/C(C)=N/NC(N)=NC)cc3c2c1`, the T/C [9] is reported as 106 % of control, the T/C [11] is reported as 113 % of control and the T/C [17] is reported as 102 % of control.
For `Cc1cccc(C)c1NC(=O)Nc1cccc(Cl)c1`, the T/C [18] was 100 % of control, the T/C [5] was 100 % of control and the T/C [6] was 100 % of control. For the same compound, the T/C (dose: 200.0 mg/kg/injection, schedule: Q04DX003 (ip), vehicle: Klucel (hydroxypropylcellulose) (HPC)) was 100 % of control, the T/C (dose: 400.0 mg/kg/injection, schedule: Q01DX009 (ip), vehicle: Klucel (hydroxypropylcellulose) (HPC)) was 86 % of control and the T/C (dose: 400.0 mg/kg/injection, schedule: Q04DX003 (ip), vehicle: Klucel (hydroxypropylcellulose) (HPC)) was 100 % of control.
`COc1cc2c3c(c1)-c1nc4ccccc4cc1CN3CCC2` was tested, and the T/C (dose: 25.0 mg/kg/injection, schedule: Q04DX003 (ip), vehicle: alcohol) was 111 % of control, the T/C (dose: 50.0 mg/kg/injection, schedule: Q04DX003 (ip), vehicle: alcohol) was 104 % of control and the T/C (dose: 100.0 mg/kg/injection, schedule: Q04DX003 (ip), vehicle: alcohol) was 106 % of control. The T/C (dose: 200.0 mg/kg/injection, schedule: Q04DX003 (ip), vehicle: alcohol) was 98 % of control.
In the case of `Cc1cc(/C=C/c2cc[n+](C)c3ccccc23)c(O)c2ncccc12`, the T/C (dose: 3.0 mg/kg/injection, schedule: Q01DX009 (ip), vehicle: saline sonified) is reported as 104 % of control, the T/C (dose: 6.0 mg/kg/injection, schedule: Q01DX009 (ip), vehicle: saline sonified) is reported as 97 % of control and the T/C (dose: 12.0 mg/kg/injection, schedule: Q01DX009 (ip), vehicle: saline sonified) is reported as 97 % of control. The T/C (dose: 24.0 mg/kg/injection, schedule: Q01DX009 (ip), vehicle: saline sonified) was 100 % of control and the T/C (dose: 48.0 mg/kg/injection, schedule: Q01DX009 (ip), vehicle: saline sonified) was 104 % of control.
`CC(C)CC(NC(=O)OC(C)(C)C)C(=O)ON1C(=O)CCC1=O` (configuration not stated) was tested, and the T/C [7] was 93 % of control, the T/C [9] was 93 % of control and the T/C [11] was 96 % of control. For the same compound, the T/C [17] was 90 % of control and 92 % of control.
For `COC(=O)[C@@H]1[C@@H](O)[C@H](OC(=O)c2cc(OC)c(OC)c(OC)c2)C[C@@H]2CN3CCc4c([nH]c5ccccc45)[C@H]3C[C@@H]21`, the T/C (dose: 1.5 mg/kg/injection, schedule: Q01DX009 (ip), vehicle: Klucel (hydroxypropylcellulose) (HPC)) was 107 % of control, the T/C (dose: 3.0 mg/kg/injection, schedule: Q01DX009 (ip), vehicle: Klucel (hydroxypropylcellulose) (HPC)) was 98 % of control and the T/C (dose: 6.0 mg/kg/injection, schedule: Q01DX009 (ip), vehicle: Klucel (hydroxypropylcellulose) (HPC)) was 97 % of control.
`CC1(C)N=C(N)N=C(N)N1c1ccc(CCCCc2cccc(S(=O)(=O)F)c2)c(Cl)c1` was tested, and the T/C (dose: 8.0 mg/kg/injection, schedule: Q01DX009 (ip), vehicle: saline) was 108 % of control, the T/C (dose: 12.0 mg/kg/injection, schedule: Q01DX009 (ip), vehicle: saline) was 116 % of control and the T/C (dose: 18.0 mg/kg/injection, schedule: Q01DX009 (ip), vehicle: saline) was 118 % of control. For the same compound, the T/C (dose: 27.0 mg/kg/injection, schedule: Q01DX009 (ip), vehicle: saline) was 124 % of control.
With `NC(=O)Nc1cc(NC(N)=O)cc(N(CCCl)CCCl)c1` the T/C [1] was 88 % of control, the T/C (dose: 3.13 mg/kg/injection, schedule: Q01DX009 (ip), vehicle: Klucel (hydroxypropylcellulose) (HPC)) was 101 % of control and the T/C [3] was 91 % of control. For the same compound, the T/C [14] was 96 % of control, the T/C [15] was 108 % of control and the T/C [16] was 98 % of control.
With `N#CC(C#N)=CN1CCCCCC1` the T/C [19] was 107 % of control, the T/C (dose: 3.13 mg/kg/injection, schedule: Q04DX003 (ip), vehicle: saline with Tween-80) was 93 % of control and the T/C [7] was 102 % of control. For the same compound, the T/C [8] was 97 % of control, the T/C [9] was 102 % of control and the T/C [10] was 100 % of control.
`CCC(C(N)=O)C1=CCCCC1` (configuration not stated) was tested, and the T/C [18] was 105 % of control and the T/C [6] was 101 % of control.
With `c1ccc(CSc2ncnc3nc[nH]c23)cc1` the T/C [15] was 95 % of control, the T/C (dose: 25.0 mg/kg/injection, schedule: Q04DX003 (ip), vehicle: Klucel (hydroxypropylcellulose) (HPC)) was 95 % of control and the T/C [4] was 100 % of control. The T/C [5] was 97 % of control.
In the case of `CC(=O)OC(C)C1C2=C(C(=O)CC1(C)O)C(=O)c1c(ccc(-c3ccc4c(c3O)C(=O)C3=C(C4=O)C(C(C)OC(C)=O)C(C)(O)CC3=O)c1O)C2=O` (configuration not stated), the T/C (dose: 1.56 mg/kg/injection, schedule: Q01DX009 (ip), vehicle: saline with Tween-80) is reported as 110 % of control, the T/C [19] is reported as 117 % of control and the T/C [7] is reported as 110 % of control.
`ClCCCCCCBr` was tested, and the T/C (dose: 75.0 mg/kg/injection, schedule: Q01DX009 (ip), vehicle: Klucel (hydroxypropylcellulose) (HPC)) was 122 % of control, the T/C (dose: 150.0 mg/kg/injection, schedule: Q01DX009 (ip), vehicle: Klucel (hydroxypropylcellulose) (HPC)) was 122 % of control and the T/C (dose: 300.0 mg/kg/injection, schedule: Q01DX009 (ip), vehicle: Klucel (hydroxypropylcellulose) (HPC)) was 105 % of control.
`CCCCCCCCCC(=O)CCCCCC` was tested, and the T/C [18] was 90 % of control and the T/C [6] was 89 % of control.
With `CCOC(=O)c1cnc(SC)nc1Nc1c(Br)cc(Br)cc1Br` the T/C [14] was 106 % of control, the T/C [15] was 109 % of control and the T/C [16] was 106 % of control.
With `COC(C(=O)C(O)C(C)O)C1CC2C=C3C=C(OC4CC(OC5CC(O)C(OC)C(C)O5)C(OC(C)=O)C(C)O4)C(C)C(=O)C3=C(O)C2=C(O)C1OC1CC(OC2CC(OC3CC(C)(O)C(O)C(C)O3)C(O)C(C)O2)C(O)C(C)O1` (configuration not stated) the T/C (dose: 0.25 mg/kg/injection, schedule: Q01DX009 (ip), vehicle: saline with Tween-80) was 108 % of control, the T/C (dose: 0.5 mg/kg/injection, schedule: Q01DX009 (ip), vehicle: saline with Tween-80) was 112 % of control and the T/C (dose: 1.0 mg/kg/injection, schedule: Q01DX009 (ip), vehicle: saline with Tween-80) was 110 % of control and 116 % of control. For the same compound, the T/C (dose: 2.6 mg/kg/injection, schedule: Q01DX009 (ip), vehicle: saline with Tween-80) was 157 % of control, the T/C (dose: 4.0 mg/kg/injection, schedule: Q01DX009 (ip), vehicle: saline with Tween-80) was 154 % of control and 167 % of control and the T/C (dose: 8.0 mg/kg/injection, schedule: Q01DX009 (ip), vehicle: saline with Tween-80) was 165 % of control.
